Measured values from patent US9290536B2, “C4 monomethyl triterpenoid derivatives and methods of use thereof” (Reata Pharmaceuticals, Inc., priority 2011, dated 2016).

What follows are molecules tested on IFNγ-induced NO production in RAW264.7 (assay: Suppression of IFNγ-induced NO production in RAW264.7 mouse macrophages (Griess reagent, normalized to WST-1 cell viability)). Details: RAW264.7 cells, 2 h pre-treatment with drug (0-200 nM), then IFNγ for 24 h.
Assay type: cell-based
Method: Nitric Oxide Production and Cell Viability. […] On the next day, cells were pre-treated with DMSO or drug (0-200 nM dose range) for 2 hours, and then treated with recombinant mouse IFNγ (R&D Systems) for 24 hours. Nitric Oxide concentration in media was determined using the Griess reagent system (Promega). Cell viability was determined using WST-1 reagent (Roche). IC50 values were determined based on the suppression of IFNγ induced Nitric Oxide production normalized to cell viability.

| SMILES | IC50 [nM] |
| --- | --- |
| C[C@@H]1C(=O)C(C#N)=C[C@]2(C)C3=CC(=O)[C@@H]4[C@@H]5CC(C)(C)CC[C@]5(CCC(=O)NC5COC5)CC[C@@]4(C)[C@]3(C)CC[C@@H]12 [TX63914] | 0.4 |
| CCNC(=O)OCCC[C@]12CCC(C)(C)C[C@H]1[C@H]1C(=O)C=C3[C@@]4(C)C=C(C#N)C(=O)[C@@H](C)[C@@H]4CC[C@@]3(C)[C@]1(C)CC2 [TX63982] | 3.5 |
| C=C1C(=O)C(C#N)=C[C@]2(C)C3=CC(=O)[C@@H]4[C@@H]5CC(C)(C)CC[C@]5(C(=O)OC)CC[C@@]4(C)[C@]3(C)CC[C@@H]12 [TX63911] | 10 |
| CCOC(=O)N[C@]12CCC(C)(C)C[C@H]1[C@H]1C(=O)C=C3[C@@]4(C)C=C(C#N)C(=O)[C@@H](C)[C@@H]4CC[C@@]3(C)[C@]1(C)CC2 [TX63800] | 0.9 |
| COC(=O)[C@]12CCC(C)(C)C[C@H]1[C@H]1C(=O)C=C3[C@@]4(C)C=C(C(=O)O)C(=O)[C@@H](C)[C@@H]4CC[C@@]3(C)[C@]1(C)CC2 [TX63830] | 4.6 |
| CC(=O)OC[C@]12CCC(C)(C)C[C@H]1[C@H]1C(=O)C=C3[C@@]4(C)C=C(C#N)C(=O)[C@@H](C)[C@@H]4CC[C@@]3(C)[C@]1(C)CC2 [TX63546] | 1 |
| C[C@@H]1C(=O)C(C#N)=C[C@]2(C)C3=CC(=O)[C@@H]4[C@@H]5CC(C)(C)CC[C@]5(C(=O)N5CCCCC5)CC[C@@]4(C)[C@]3(C)CC[C@@H]12 [TX63880] | 1.6 |
| C[C@@H]1C(=O)C(C#N)=C[C@]2(C)[C@H]3CC(=O)[C@@H]4[C@@H]5CC(C)(C)CC[C@]5(COC(=O)C(F)(F)F)CC[C@@]4(C)[C@]3(C)CC[C@@H]12 [TX63841] | 4.5 |
| CSCOC[C@]12CCC(C)(C)C[C@H]1[C@H]1C(=O)C[C@@H]3[C@@]4(C)C=C(C#N)C(=O)[C@@H](C)[C@@H]4CC[C@@]3(C)[C@]1(C)CC2 [TX63859] | 14.6 |
| C[C@@H]1C(=O)C(C#N)=C[C@]2(C)C3=CC(=O)[C@@H]4[C@@H]5CC(C)(C)CC[C@]5(COC(=O)CN)CC[C@@]4(C)[C@]3(C)CC[C@@H]12 [TX63717] | 0.6 |
| C[C@@H]1C(=O)C(C#N)=C[C@]2(C)C3=CC(=O)[C@@H]4[C@@H]5CC(C)(C)CC[C@]5(c5nnco5)CC[C@@]4(C)[C@]3(C)CC[C@@H]12 [TX63789] | 0.6 |
| CCOC(=O)[C@]12CCC(C)(C)C[C@H]1[C@@]1(O)C(=O)C=C3[C@@]4(C)C=C(C#N)C(=O)[C@@H](C)[C@@H]4CC[C@@]3(C)[C@]1(C)CC2 [TX63901] | 1.3 |
| C[C@@H]1C(=O)C(C#N)=C[C@]2(C)C3=CC(=O)[C@@]4(C)[C@@H]5CC(C)(C)CC[C@]56CC[C@]4(OC6=O)[C@]3(C)CC[C@@H]12 [TX63556] | 69 |
| C[C@@H]1C(=O)C(C#N)=C[C@]2(C)C3=CC(=O)[C@@H]4[C@@H]5CC(C)(C)CC[C@]5(N)CC[C@@]4(C)[C@]3(C)CC[C@@H]12 [TX63620] | 1.2 |
| C[C@@H]1C(=O)C(C#N)=C[C@]2(C)C3=CC(=O)[C@@H]4[C@@H]5CC(C)(C)CC[C@]5(NC(N)=O)CC[C@@]4(C)[C@]3(C)CC[C@@H]12 [TX63862] | 28 |
| CCNC(=O)[C@]12CCC(C)(C)C[C@H]1[C@H]1C(=O)C=C3[C@@]4(C)C=C(C#N)C(=O)C(C)=C4CC[C@@]3(C)[C@]1(C)CC2 [TX63597] | > 25 |
| C[C@@H]1C(=O)C(C#N)=C[C@]2(C)C3=C[C@@H](O)[C@@H]4[C@@H]5CC(C)(C)CC[C@]5(CO)CC[C@@]4(C)[C@]3(C)CC[C@@H]12 [TX63923] | 2.5 |
| Cc1cn(C(=O)[C@]23CCC(C)(C)C[C@H]2[C@H]2C(=O)C=C4[C@@]5(C)C=C(C#N)C(=O)[C@@H](C)[C@@H]5CC[C@@]4(C)[C@]2(C)CC3)c(C)n1 [TX63822] | 0.7 |

| SMILES | IC50 [nM] |
| --- | --- |
| C/C(=N\O)NC(=O)[C@]12CCC(C)(C)C[C@H]1[C@H]1C(=O)C=C3[C@@]4(C)C=C(C#N)C(=O)[C@@H](C)[C@@H]4CC[C@@]3(C)[C@]1(C)CC2 [TX63786] | 2.2 |
| CCNC(=O)[C@]12CCC(C)(C)C[C@H]1[C@H]1C(=O)C[C@@H]3[C@@]4(C)C=C(C#N)C(=O)[C@@H](C)[C@@H]4CC[C@@]3(C)[C@]1(C)CC2 [TX63680] | 7 |
| C[C@@H]1C(=O)C(C#N)=C[C@]2(C)C3=CC(F)[C@]45OC(=O)[C@@]6(CCC(C)(C)C[C@H]64)CC[C@@]5(C)[C@]3(C)CC[C@@H]12 (some centres unmarked) [TX63907] | 1.6 |
| C[C@@H]1C(=O)C(C#N)=C[C@]2(C)C3=CC(=O)[C@@H]4[C@@H]5CC(C)(C)CC[C@]5(CCC(=O)N5CCC5)CC[C@@]4(C)[C@]3(C)CC[C@@H]12 [TX63889] | 0.4 |
| C[C@@H]1C(=O)C(C#N)=C[C@]2(C)C3=CC(=O)[C@@H]4[C@@H]5CC(C)(C)CC[C@]5(CCC(=O)N5CCC(F)(F)C5)CC[C@@]4(C)[C@]3(C)CC[C@@H]12 [TX63890] | 0.8 |
| COC(=O)[C@]12CCC(C)(C)C[C@H]1C1=CC[C@@H]3[C@@]4(C)C=C(C#N)C(=O)[C@@H](C)[C@@H]4CC[C@@]3(C)[C@]1(C)CC2 [TX63779] | 44 |
| CC(=O)OC[C@]12CCC(C)(C)C[C@H]1[C@@]1(O)C(=O)C=C3[C@@]4(C)C=C(C#N)C(=O)[C@@H](C)[C@@H]4CC[C@@]3(C)[C@]1(C)CC2 [TX63909] | 1.4 |
| COC[C@]12CCC(C)(C)C[C@H]1[C@H]1C(=O)C[C@@H]3[C@@]4(C)C=C(C#N)C(=O)[C@@H](C)[C@@H]4CC[C@@]3(C)[C@]1(C)CC2 [TX63858] | 7.2 |
| C[C@@H]1C(=O)C(C#N)=C[C@]2(C)C3=CC(=O)[C@@H]4[C@@H]5CC(C)(C)CC[C@]5(CCC(=O)N5CCOCC5)CC[C@@]4(C)[C@]3(C)CC[C@@H]12 [TX63888] | 0.3 |
| C[C@@H]1C(=O)C(C#N)=C[C@]2(C)[C@H]3CC(=O)[C@@H]4[C@@H]5CC(C)(C)CC[C@]5(C(=O)NO)CC[C@@]4(C)[C@]3(C)CC[C@@H]12 [TX63814] | 19 |
| C[C@@H]1C(=O)C(C#N)=C[C@]2(C)C3=CC(=O)[C@@H]4[C@@H]5CC(C)(C)CC[C@@H]5CC[C@@]4(C)[C@]3(C)CC[C@@H]12 [TX63869] | 3.8 |
| CC(=O)OC[C@]12CCC(C)(C)C[C@H]1[C@H]1C(=O)C[C@@H]3[C@@]4(C)C=C(C#N)C(=O)[C@@H](C)[C@@H]4CC[C@@]3(C)[C@]1(C)CC2 [TX63840] | 2.9 |
| CCOC(=O)[C@]12CCC(C)(C)C[C@H]1[C@H]1C(=O)C[C@@H]3[C@@]4(C)C=C(C#N)C(=O)[C@@H](C)[C@@H]4CC[C@@]3(C)[C@]1(C)CC2 [TX63842] | 6.1 |
| C[C@@H]1C(=O)C(C#N)=C[C@]2(C)C3=CC(=O)[C@@H]4[C@@H]5CC(C)(C)CC[C@]5(COC(=O)CNC(=O)OC(C)(C)C)CC[C@@]4(C)[C@]3(C)CC[C@@H]12 [TX63716] | 3.2 |
| C[C@@H]1C(=O)C(C#N)=C[C@]2(C)[C@H]3CC(=O)[C@@H]4[C@@H]5CC(C)(C)CC[C@]5(COCF)CC[C@@]4(C)[C@]3(C)CC[C@@H]12 [TX63860] | 4.1 |
| C[C@@H]1C(=O)C(C#N)=C[C@]2(C)C3=CC(=O)[C@@H]4[C@@H]5CC(C)(C)CC[C@]5(NS(C)(=O)=O)CC[C@@]4(C)[C@]3(C)CC[C@@H]12 [TX63621] | 0.8 |
| CC(=O)N[C@]12CCC(C)(C)C[C@H]1[C@H]1C(=O)C=C3[C@@]4(C)C=C(C#N)C(=O)[C@@H](C)[C@@H]4CC[C@@]3(C)[C@]1(C)CC2 [TX63622] | 3.8 |
